The values that follow come from patent US12344615B2, “Substituted pyridines as ion channel modulators” (PRAXIS PRECISION MEDICINES, INC., priority 2019, dated 2025).

Molecules are shown by their SMILES. A value given as a limit tells only on which side of the number the result lay.

T1 sequence (Q9UQD0 whole entry): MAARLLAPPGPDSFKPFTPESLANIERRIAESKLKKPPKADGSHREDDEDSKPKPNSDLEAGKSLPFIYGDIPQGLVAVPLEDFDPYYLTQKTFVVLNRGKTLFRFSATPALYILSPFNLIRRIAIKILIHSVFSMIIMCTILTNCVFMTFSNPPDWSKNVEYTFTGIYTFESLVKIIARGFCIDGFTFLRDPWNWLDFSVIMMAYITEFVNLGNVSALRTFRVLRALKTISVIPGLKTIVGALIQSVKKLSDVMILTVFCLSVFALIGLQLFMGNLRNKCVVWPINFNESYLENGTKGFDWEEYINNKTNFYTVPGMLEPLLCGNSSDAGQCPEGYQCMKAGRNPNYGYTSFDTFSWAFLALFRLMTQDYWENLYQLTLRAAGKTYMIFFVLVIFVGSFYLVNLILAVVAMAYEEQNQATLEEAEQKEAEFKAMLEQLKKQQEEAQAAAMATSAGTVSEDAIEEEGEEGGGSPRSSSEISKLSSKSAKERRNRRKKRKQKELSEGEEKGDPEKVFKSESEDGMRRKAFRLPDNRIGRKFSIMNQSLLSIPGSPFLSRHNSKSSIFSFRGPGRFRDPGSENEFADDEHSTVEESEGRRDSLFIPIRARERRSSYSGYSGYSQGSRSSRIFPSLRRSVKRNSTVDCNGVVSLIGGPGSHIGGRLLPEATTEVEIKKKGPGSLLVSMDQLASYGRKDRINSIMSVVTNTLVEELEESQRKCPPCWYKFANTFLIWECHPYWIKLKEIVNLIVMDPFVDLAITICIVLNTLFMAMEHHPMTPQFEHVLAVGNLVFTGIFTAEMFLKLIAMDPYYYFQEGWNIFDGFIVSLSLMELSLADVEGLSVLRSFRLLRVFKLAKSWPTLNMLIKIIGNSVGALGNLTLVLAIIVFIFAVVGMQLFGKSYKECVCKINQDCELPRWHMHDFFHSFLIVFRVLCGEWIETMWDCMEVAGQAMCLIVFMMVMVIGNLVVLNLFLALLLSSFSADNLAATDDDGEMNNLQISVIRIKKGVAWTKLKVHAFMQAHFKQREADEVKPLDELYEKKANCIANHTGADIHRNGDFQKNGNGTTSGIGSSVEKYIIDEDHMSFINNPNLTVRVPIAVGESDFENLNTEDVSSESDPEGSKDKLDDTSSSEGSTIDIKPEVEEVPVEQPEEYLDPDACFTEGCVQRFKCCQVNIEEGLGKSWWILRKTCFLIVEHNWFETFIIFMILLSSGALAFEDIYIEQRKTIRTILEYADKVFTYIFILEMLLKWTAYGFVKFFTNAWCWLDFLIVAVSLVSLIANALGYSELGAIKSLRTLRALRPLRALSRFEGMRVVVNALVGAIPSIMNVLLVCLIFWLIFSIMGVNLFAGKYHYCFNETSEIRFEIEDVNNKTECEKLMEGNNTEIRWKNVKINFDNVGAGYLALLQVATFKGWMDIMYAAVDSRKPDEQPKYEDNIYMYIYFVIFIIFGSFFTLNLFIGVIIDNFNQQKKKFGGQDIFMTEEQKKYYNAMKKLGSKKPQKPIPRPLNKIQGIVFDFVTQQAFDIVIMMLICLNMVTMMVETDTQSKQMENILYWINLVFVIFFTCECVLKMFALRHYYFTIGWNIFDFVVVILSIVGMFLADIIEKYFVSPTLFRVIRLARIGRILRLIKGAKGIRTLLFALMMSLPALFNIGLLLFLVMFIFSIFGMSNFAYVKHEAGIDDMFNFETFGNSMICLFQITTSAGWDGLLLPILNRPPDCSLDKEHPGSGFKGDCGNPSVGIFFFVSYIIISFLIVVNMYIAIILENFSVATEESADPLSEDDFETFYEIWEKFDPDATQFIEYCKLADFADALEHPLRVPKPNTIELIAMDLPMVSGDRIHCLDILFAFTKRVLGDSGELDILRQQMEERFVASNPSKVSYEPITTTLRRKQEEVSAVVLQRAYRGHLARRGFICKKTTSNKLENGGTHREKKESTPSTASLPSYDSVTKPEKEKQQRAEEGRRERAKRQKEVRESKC

One test has as its target T1, INaL v1.6 (late sodium current, HEK-293 cells expressing recombinant sodium channels) (Homo sapiens, UniProt Q9UQD0).
T1 construct: expressed in transfected cells; host or cells: HEK-293
Briefly: Inhibition of ATX-II evoked Nav late current (INaL), PatchXpress electrophysiology. Conditions: HEK293, compound at 1 μM, late current evoked by ATX-II 300 nM. The class given is cell-based. The method, then: Functional characterization of exemplary compounds to modulate voltage gated sodium currents was accomplished using the PatchXpress™ high throughput electrophysiology platforms (Molecular Devices, Sunnyvale, CA). HEK-293 cells expressing recombinant sodium channels were grown in DMEM/high-glucose Dulbecco's modified, 10% FBS, 2 mM sodium pyruvate, and G418. Nav channel expressing cells were grown to 50%-80% confluency and harvested by trypsinization. Trypsinized cells were washed and resuspended in extracellular buffer at a concentration of 1×10^6 cells/ml. The onboard liquid handling facility of the PatchXpress was used for dispensing cells and application of test compounds. Nav late currents were evoked by the application of ATX-II, 300 nM. Currents were evoked by depolarizing pulses to 0 mV for 200 ms from a non-inactivating holding potential (e.g., −120 mV to −150 mV) at a frequency of 0.1 Hz. Late current amplitude and stability were determined by analyzing the mean current amplitude over the 175-195 msec region of the 200 msec test pulse. Following steady state block with exemplary compounds (e.g., as described herein) at 1 μM, a Na^+ free solution containing an impermeant cation (e.g., Choline or NDMG) was added for determination of the 0 current level. Late current amplitudes for each test condition were determined from the mean of the 175-195 msec region of the 200 msec test pulse. Percent inhibition of steady state currents was calculated as (compound−baseline)/(control−baseline)*100, where control represents INaL recorded in the absence of compound.
Regarding `CC(C)(Oc1ncc(-c2ccc3nnc(C4CC4(F)F)n3n2)cc1F)C(F)(F)F` (single isomer, unassigned) [11 (Isomer 1)], the inhibition (in general, the relative decrease from the control value, in per cent) at 1 µM was greater than 75%.
Regarding `CC(C)(Oc1ncc(-c2cn3c(C4CC4(F)F)nnc3cn2)cc1F)C(F)(F)F` (single isomer, unassigned) [13 (Isomer 1)], the inhibition at 1 µM was less than 50%.
As to `C[C@@H](Oc1ncc(-c2cn3c(C4CC4(F)F)nnc3cn2)cc1F)C(F)(F)F` (single isomer, unassigned) [16 (Isomer 1)], the inhibition at 1 µM is less than 50%.
Still for that read-out and setting: then `C[C@H](Oc1ncc(-c2cn3c(C4CC4(F)F)nnc3cn2)cc1F)C(F)(F)F` (single isomer, unassigned) [18 (Isomer 1)], with less than 50%; and `Fc1cc(-c2ccc3nnc(C(F)F)n3n2)cnc1OCC1CC1(F)F` (single isomer, unassigned) [21 (Isomer 1)], with 50 to 75%.
Still for that read-out and setting: as for `Fc1cc(-c2ccc3nnc(C(F)(F)F)n3n2)cnc1OCC1CC1(F)F` (single isomer, unassigned) [23 (Isomer 1)], the figure is 50 to 75%.
Still for that read-out and setting: as for `Fc1cc(-c2ccc3nnc(C(F)(F)F)n3n2)cnc1OC1CC(F)(F)C1(F)F` (single isomer, unassigned) [25 (Isomer 1)], the figure is greater than 75%; as for `Fc1cc(-c2cn3c(C(F)(F)F)nnc3cn2)cnc1OCC1CC1(F)F` (single isomer, unassigned) [28 (Isomer 1)], 50 to 75%; as for `Fc1cc(-c2cn3c(C(F)F)nnc3cn2)cnc1OCC1CC1(F)F` (single isomer, unassigned) [30 (Isomer 1)], less than 50%.
On to `Fc1cc(-c2cn3c(C(F)(F)F)nnc3cn2)cnc1OC1CC(F)(F)C1(F)F` (single isomer, unassigned) [32 (Isomer 1)], for which the inhibition at 1 µM is greater than 75%.
The same measure, in the same setting: as for `CC(C)(Oc1ncc(-c2cn3c(C(F)F)nnc3cn2)cc1F)C(F)(F)F` [Compound 1, 3-(difluoromethyl)-6-[5-fluoro-6-(2,2,2-trifluoro-1,1-dimethyl-ethoxy)-3-pyridyl]-[1,2,4]triazolo[4,3-a]pyrazine], the figure is greater than 75%; as for `Fc1cc(-c2cn3c(C(F)(F)F)nnc3cn2)cnc1OC1(C(F)(F)F)COC1` [Compound 2, 6-[5-fluoro-6-[3-(trifluoromethyl)oxetan-3-yl]oxy-3-pyridyl]-3-(trifluoromethyl)-[1,2,4]triazolo[4,3-a]pyrazine], less than 50%.
`CC(C)(Oc1ncc(-c2cn3c(C(F)(F)F)nnc3cn2)cc1F)C(F)(F)F` [Compound 3, 6-[5-fluoro-6-(2,2,2-trifluoro-1,1-dimethyl-ethoxy)-3-pyridyl]-3-(trifluoromethyl)-[1,2,4]triazolo[4,3-a]pyrazine]: the inhibition at 1 µM is greater than 75%.
Same read-out and setting: as for `Fc1cc(-c2ccc3nnc(C(F)(F)F)n3n2)cnc1OC1(C(F)(F)F)COC1` [Compound 4, 6-[5-fluoro-6-[3-(trifluoromethyl)oxetan-3-yl]oxy-3-pyridyl]-3-(trifluoromethyl)-[1,2,4]triazolo[4,3-b]pyridazine], the figure is 50 to 75%; as for `Fc1cc(-c2ccc3nnc(C(F)(F)F)n3n2)cnc1OC1(C(F)(F)F)CCC1` [Compound 6, 6-[5-fluoro-6-[1-(trifluoromethyl)cyclobutoxy]-3-pyridyl]-3-(trifluoromethyl)-[1,2,4]triazolo[4,3-b]pyridazine], greater than 75%; as for `Fc1cc(-c2cn3c(C(F)(F)F)nnc3cn2)cnc1OC1(C(F)(F)F)CCC1` [Compound 7, 6-[5-fluoro-6-[1-(trifluoromethyl)cyclobutoxy]-3-pyridyl]-3-(trifluoromethyl)-[1,2,4]triazolo[4,3-a]pyrazine], greater than 75%.
Still for that read-out and setting: then `CC(C)(Oc1ncc(-c2cn3c(C4CC(F)(F)C4)nnc3cn2)cc1F)C(F)(F)F` [Compound 8, 3-(3,3-difluorocyclobutyl)-6-[5-fluoro-6-(2,2,2-trifluoro-1,1-dimethyl-ethoxy)-3-pyridyl]-[1,2,4]triazolo[4,3-a]pyrazine], with 50 to 75%.
Same read-out and setting: then `Fc1cc(-c2cn3c(C(F)F)nnc3cn2)cnc1OC1(C(F)(F)F)CCC1` [Compound 9, 3-(difluoromethyl)-6-[5-fluoro-6-[1-(trifluoromethyl)cyclobutoxy]-3-pyridyl]-[1,2,4]triazolo[4,3-a]pyrazine], with greater than 75%; and `CC(C)(Oc1ncc(-c2cn3c(C4CC4(F)F)nnc3cn2)cc1F)C(F)(F)F` (centres unmarked) [Compound 10, 3-(2,2-difluorocyclopropyl)-6-[5-fluoro-6-(2,2,2-trifluoro-1,1-dimethyl-ethoxy)-3-pyridyl]-[1,2,4]triazolo[4,3-a]pyrazine], with 50 to 75%; and `CC(C)(Oc1ncc(-c2ccc3nnc(C4CC4(F)F)n3n2)cc1F)C(F)(F)F` (centres unmarked) [Compound 12, 3-(2,2-difluorocyclopropyl)-6-[5-fluoro-6-(2,2,2-trifluoro-1,1-dimethyl-ethoxy)-3-pyridyl]-[1,2,4]triazolo[4,3-b]pyridazine], with greater than 75%.
On to `CC(C)(Oc1ncc(-c2ccc3nnc(C4CC(F)(F)C4)n3n2)cc1F)C(F)(F)F` [Compound 14, 3-(3,3-difluorocyclobutyl)-6-[5-fluoro-6-(2,2,2-trifluoro-1,1-dimethyl-ethoxy)-3-pyridyl]-[1,2,4]triazolo[4,3-b]pyridazine], for which the inhibition at 1 µM was greater than 75%.
With `C[C@H](Oc1ncc(-c2ccc3nnc(C(F)F)n3n2)cc1F)C(F)(F)F` [Compound 15, 3-(difluoromethyl)-6-[5-fluoro-6-[(1S)-2,2,2-trifluoro-1-methyl-ethoxy]-3-pyridyl]-[1,2,4]triazolo[4,3-b]pyridazine], the inhibition at 1 µM was greater than 75%.
The same measure, in the same setting: as for `C[C@@H](Oc1ncc(-c2ccc3nnc(C(F)F)n3n2)cc1F)C(F)(F)F` [Compound 17, 3-(difluoromethyl)-6-[5-fluoro-6-[(1R)-2,2,2-trifluoro-1-methyl-ethoxy]-3-pyridyl]-[1,2,4]triazolo[4,3-b]pyridazine], the figure is greater than 75%; as for `C[C@H](Oc1ncc(-c2cn3c(C4CC(F)(F)C4)nnc3cn2)cc1F)C(F)(F)F` [Compound 19, 3-(3,3-difluorocyclobutyl)-6-[5-fluoro-6-[(1S)-2,2,2-trifluoro-1-methyl-ethoxy]-3-pyridyl]-[1,2,4]triazolo[4,3-a]pyrazine], 50 to 75%; as for `C[C@@H](Oc1ncc(-c2cn3c(C4CC(F)(F)C4)nnc3cn2)cc1F)C(F)(F)F` [Compound 20, 3-(3,3-difluorocyclobutyl)-6-[5-fluoro-6-[(1R)-2,2,2-trifluoro-1-methyl-ethoxy]-3-pyridyl]-[1,2,4]triazolo[4,3-a]pyrazine], less than 50%.
On the same count and under the same terms, then `Fc1cc(-c2ccc3nnc(C(F)F)n3n2)cnc1OCC1CC1(F)F` (centres unmarked) [Compound 22, 6-[6-[(2,2-difluorocyclopropyl)methoxy]-5-fluoro-3-pyridyl]-3-(difluoromethyl)-[1,2,4]triazolo[4,3-b]pyridazine], with less than 50%; and `Fc1cc(-c2ccc3nnc(C(F)(F)F)n3n2)cnc1OCC1CC1(F)F` (centres unmarked) [Compound 24, 6-[6-[(2,2-difluorocyclopropyl)methoxy]-5-fluoro-3-pyridyl]-3-(trifluoromethyl)-[1,2,4]triazolo[4,3-b]pyridazine], with 50 to 75%; and `Fc1cc(-c2ccc3nnc(C(F)(F)F)n3n2)cnc1OC1CC(F)(F)C1(F)F` (centres unmarked) [Compound 26, 6-[5-fluoro-6-(2,2,3,3-tetrafluorocyclobutoxy)-3-pyridyl]-3-(trifluoromethyl)-[1,2,4]triazolo[4,3-b]pyridazine], with greater than 75%.
For the compound `Fc1cc(-c2cn3c(C(F)(F)F)nnc3cn2)cnc1OCC1CC1(F)F` (centres unmarked) [Compound 29], the inhibition at 1 µM lay within 50 to 75%.
In the case of `Fc1cc(-c2cn3c(C(F)F)nnc3cn2)cnc1OCC1CC1(F)F` (centres unmarked) [Compound 31, 6-[6-[(2,2-difluorocyclopropyl)methoxy]-5-fluoro-3-pyridyl]-3-(difluoromethyl)-[1,2,4]triazolo[4,3-a]pyrazine], the inhibition at 1 µM is less than 50%.
The same measure, in the same setting: then `Fc1cc(-c2cn3c(C(F)(F)F)nnc3cn2)cnc1OC1CC(F)(F)C1(F)F` (centres unmarked) [Compound 33, 6-[5-fluoro-6-(2,2,3,3-tetrafluorocyclobutoxy)-3-pyridyl]-3-(trifluoromethyl)-[1,2,4]triazolo[4,3-a]pyrazine], with greater than 75%.

Staying with this test, now noted: compound at 1 μM, late current evoked by ATX-II 300 nM.
With `CC(C)(Oc1ncc(-c2cn3c(C4CC4(F)F)nnc3cn2)cc1F)C(F)(F)F` (single isomer, unassigned) [13 (Isomer 2)], the “INaL v1.6 % Inhibition” value was “B (inhibition of 50% to 75%)”.
On the same count and under the same terms, as for `C[C@@H](Oc1ncc(-c2cn3c(C4CC4(F)F)nnc3cn2)cc1F)C(F)(F)F` (single isomer, unassigned) [16 (Isomer 2)], the entry is “B (inhibition of 50% to 75%)”.
As for `C[C@H](Oc1ncc(-c2cn3c(C4CC4(F)F)nnc3cn2)cc1F)C(F)(F)F` (single isomer, unassigned) [18 (Isomer 2)], the “INaL v1.6 % Inhibition” value was “B (inhibition of 50% to 75%)”.
As for `Fc1cc(-c2ccc3nnc(C(F)F)n3n2)cnc1OCC1CC1(F)F` (single isomer, unassigned) [21 (Isomer 2)], the “INaL v1.6 % Inhibition” value was “A (inhibition of less than 50%)”.
